Reference: patent US7956074B2, “Aryl-isoxazolo-4-yl-oxadiazole derivatives” (Hoffman-La Roche Inc., priority 2005, dated 2011)

biological target: T1, GABA A receptor α5β3γ2 (Homo sapiens, UniProt P18507+P31644); assay: [3H]flumazenil competition binding, human GABA A α5β3γ2; settings: competition for [3H]flumazenil (0.5 nM) binding, HEK293 cells expressing human (transiently transfected) α5β3γ2; means of two determinations; read-out: Ki[nM] hα5
T1 construct: expressed in transfected cells; host or cells: HEK293 cells, transiently transfected; membranes prepared
Description: Membrane Preparation and Binding Assay
The affinity of compounds at GABA A receptor subtypes was measured by competition for [3H]flumazenil (85 Ci/mmol; Roche) binding to HEK293 cells expressing rat (stably transfected) or human (transiently transfected) receptors of composition
Cell pellets were suspended in Krebs-tris buffer (4.8 mM KCl, 1.2 mM CaCl2, 1.2 mM MgCl2, 120 mM NaCl, 15 mM Tris; pH 7.5; binding assay buffer), homogenized by polytron for ca. 20 sec on ice and centrifuged for 60 min at 4° C. (50000 g; Sorvall, rotor: SM24=20000 rpm). The cell pellets were resuspended in Krebs-tris buffer and homogenized by polytron for ca. 15 sec on ice. Protein was measured (Bradford method, Bio-Rad) and aliquots of 1 mL were prepared and stored at −80° C.
Assays were incubated to equilibrium for 1 hour at 4° C. and harvested onto GF/C uni-filters (Packard) by filtration using a Packard harvester and washing with ice-cold wash buffer (50 mM Tris; pH 7.5). After drying, filter-retained radioactivity was detected by liquid scintillation counting. Ki values were calculated using Excel-Fit (Microsoft) and are the means of two determinations.

With “2-(4,5-Difluoro-2-methoxy-phenyl)-5-(5-methyl-3-phenyl-isoxazol-4-yl)-[1,3,4]oxadiazole [Example 87]” as the compound, how does the Ki read?
The Ki was 43.8 nM.

Which Ki does the source give for `COc1cc(NCC2CCCO2)c(F)cc1-c1nnc(-c2c(-c3ccccc3)noc2C)o1` (racemic) [Example 130, rac-{2-Fluoro-5-methoxy-4-[5-(5-methyl-3-phenyl-isoxazol-4-yl)-[1,3,4]oxadiazol-2-yl]-phenyl}-(tetrahydro-furan-2-ylmethyl)-amine] here?
The Ki was 10.5 nM.

Which Ki does the source give for `Cc1onc(-c2ccccc2)c1-c1nnc(-c2ccccc2)o1` [Example 1, 2-(5-Methyl-3-phenyl-isoxazol-4-yl)-5-phenyl-[1,3,4]oxadiazole] here?
Its Ki is 400 nM.

Which Ki does the source give for `Cc1ccccc1-c1nnc(-c2c(-c3ccccc3)noc2C)o1` [Example 2, 2-(5-Methyl-3-phenyl-isoxazol-4-yl)-5-o-tolyl-[1,3,4]oxadiazole] here?
The Ki was 234 nM.

Which Ki does the source give for `COc1cccc(-c2nnc(-c3c(-c4ccccc4)noc3C)o2)c1` [Example 3, 2-(3-Methoxy-phenyl)-5-(5-methyl-3-phenyl-isoxazol-4-yl)-[1,3,4]oxadiazole] here?
The Ki was 391 nM.

With `COc1ccccc1-c1nnc(-c2c(-c3ccccc3)noc2C)o1` [Example 4, 2-(2-Methoxy-phenyl)-5-(5-methyl-3-phenyl-isoxazol-4-yl)-[1,3,4]oxadiazole] as the compound, how does the Ki read?
Its Ki is 16.4 nM.

How did the Ki turn out when `COc1ccc(-c2nnc(-c3c(-c4ccccc4)noc3C)o2)cc1` [Example 5, 2-(4-Methoxy-phenyl)-5-(5-methyl-3-phenyl-isoxazol-4-yl)-[1,3,4]oxadiazole] was run?
The Ki was 31.1 nM.

How did the Ki turn out when `Cc1onc(-c2ccccc2)c1-c1nnc(-c2cccnc2Cl)o1` [Example 6, 2-Chloro-3-[5-(5-methyl-3-phenyl-isoxazol-4-yl)-[1,3,4]oxadiazol-2-yl]-pyridine] was run?
Its Ki is 146 nM.

Which Ki does the source give for `Cc1onc(-c2ccccc2)c1-c1nnc(-c2cccc3cccnc23)o1` [Example 7, 8-[5-(5-Methyl-3-phenyl-isoxazol-4-yl)-[1,3,4]oxadiazol-2-yl]-quinoline] here?
The Ki was 40.6 nM.

`CCOc1ccccc1-c1nnc(-c2c(-c3ccccc3)noc2C)o1` [Example 8, 2-(2-Ethoxy-phenyl)-5-(5-methyl-3-phenyl-isoxazol-4-yl)-[1,3,4]oxadiazole] was tested. Which Ki did it give?
The Ki was 58.2 nM.

`Cc1onc(-c2ccccc2)c1-c1nnc(-c2ccccn2)o1` [Example 9, 2-[5-(5-Methyl-3-phenyl-isoxazol-4-yl)-[1,3,4]oxadiazol-2-yl]-pyridine] was tested. Which Ki did it give?
Its Ki is 286 nM.

Which Ki does the source give for `COc1ccc(-c2nnc(-c3c(-c4ccccc4)noc3C)o2)c(OC)c1` [Example 10, 2-(2,4-Dimethoxy-phenyl)-5-(5-methyl-3-phenyl-isoxazol-4-yl)-[1,3,4]oxadiazole] here?
Its Ki is 31.7 nM.

For `COc1cc([N+](=O)[O-])ccc1-c1nnc(-c2c(-c3ccccc3)noc2C)o1` [Example 11, 2-(2-Methoxy-4-nitro-phenyl)-5-(5-methyl-3-phenyl-isoxazol-4-yl)-[1,3,4]oxadiazole], which Ki is on record?
The Ki was 171 nM.

Which Ki does the source give for `Cc1onc(-c2ccccc2)c1-c1nnc(-c2ccccc2N)o1` [Example 12, 2-[5-(5-Methyl-3-phenyl-isoxazol-4-yl)-[1,3,4]oxadiazol-2-yl]-phenylamine] here?
The Ki was 106 nM.

How did the Ki turn out when `COc1cc(N)ccc1-c1nnc(-c2c(-c3ccccc3)noc2C)o1` [Example 13, 3-Methoxy-4-[5-(5-methyl-3-phenyl-isoxazol-4-yl)-[1,3,4]oxadiazol-2-yl]-phenylamine] was run?
Its Ki is 7.5 nM.

How did the Ki turn out when `COc1cc(C)ccc1-c1nnc(-c2c(-c3ccccc3)noc2C)o1` [Example 14, 2-(2-Methoxy-4-methyl-phenyl)-5-(5-methyl-3-phenyl-isoxazol-4-yl)-[1,3,4]oxadiazole] was run?
Its Ki is 31 nM.

With `COc1ccc(OC)c(-c2nnc(-c3c(-c4ccccc4)noc3C)o2)c1` [Example 15, 2-(2,5-Dimethoxy-phenyl)-5-(5-methyl-3-phenyl-isoxazol-4-yl)-[1,3,4]oxadiazole] as the compound, how does the Ki read?
The Ki was 14.8 nM.

`COc1cc(NC(=O)C2CC2)ccc1-c1nnc(-c2c(-c3ccccc3)noc2C)o1` [Example 16, Cyclopropanecarboxylic acid {3-methoxy-4-[5-(5-methyl-3-phenyl-isoxazol-4-yl)-[1,3,4]oxadiazol-2-yl]-phenyl}-amide] was tested. Which Ki did it give?
Its Ki is 7.7 nM.

With `COc1cc(N(C)C(=O)C2CC2)ccc1-c1nnc(-c2c(-c3ccccc3)noc2C)o1` [Example 17, Cyclopropanecarboxylic acid {3-methoxy-4-[5-(5-methyl-3-phenyl-isoxazol-4-yl)-[1,3,4]oxadiazol-2-yl]-phenyl}-methyl-amide] as the compound, how does the Ki read?
The Ki was 48.8 nM.

How did the Ki turn out when `COc1cc(NCC2CC2)ccc1-c1nnc(-c2c(-c3ccccc3)noc2CCC2CC2)o1` [Example 18, (4-{5-[5-(2-Cyclopropyl-ethyl)-3-phenyl-isoxazol-4-yl]-[1,3,4]oxadiazol-2-yl}-3-methoxy-phenyl)-cyclopropylmethyl-amine] was run?
Its Ki is 124 nM.

With `COc1cc(NCC2CC2)ccc1-c1nnc(-c2c(-c3ccccc3)noc2C)o1` [Example 19, Cyclopropylmethyl-{3-methoxy-4-[5-(5-methyl-3-phenyl-isoxazol-4-yl)-[1,3,4]oxadiazol-2-yl]-phenyl}-amine] as the compound, how does the Ki read?
Its Ki is 11.6 nM.

With `COc1cc(N)ccc1-c1nnc(-c2c(-c3ccccc3)noc2CCC2CC2)o1` [Example 20, 4-{5-[5-(2-Cyclopropyl-ethyl)-3-phenyl-isoxazol-4-yl]-[1,3,4]oxadiazol-2-yl}-3-methoxy-phenylamine] as the compound, how does the Ki read?
Its Ki is 20.5 nM.

How did the Ki turn out when `COc1cc(N(S(C)(=O)=O)S(C)(=O)=O)ccc1-c1nnc(-c2c(-c3ccccc3)noc2C)o1` [Example 21, N-{3-Methoxy-4-[5-(5-methyl-3-phenyl-isoxazol-4-yl)-[1,3,4]oxadiazol-2-yl]-phenyl}-bis-methanesulfonyl-amine] was run?
The Ki was 85 nM.

How did the Ki turn out when `COc1cc(NC(=O)c2ccsc2)ccc1-c1nnc(-c2c(-c3ccccc3)noc2C)o1` [Example 23, Thiophene-3-carboxylic acid-{3-methoxy-4-[5-(5-methyl-3-phenyl-isoxazol-4-yl)-[1,3,4]oxadiazol-2-yl]-phenyl}-amide] was run?
The Ki was 18.3 nM.

How did the Ki turn out when `COc1cc(F)ccc1-c1nnc(-c2c(-c3ccccc3)noc2C)o1` [Example 24, 2-(4-Fluoro-2-methoxy-phenyl)-5-(5-methyl-3-phenyl-isoxazol-4-yl)-[1,3,4]oxadiazole] was run?
Its Ki is 39.6 nM.

`Cc1onc(-c2ccccc2)c1-c1nnc(-c2ccc3nn[nH]c3c2)o1` [Example 25, 6-[5-(5-Methyl-3-phenyl-isoxazol-4-yl)-[1,3,4]oxadiazol-2-yl]-1H-benzotriazole] was tested. Which Ki did it give?
Its Ki is 30.9 nM.

Which Ki does the source give for `COc1cc(N2CCSCC2)ccc1-c1nnc(-c2c(-c3ccccc3)noc2C)o1` [Example 26, 4-{3-Methoxy-4-[5-(5-methyl-3-phenyl-isoxazol-4-yl)-[1,3,4]oxadiazol-2-yl]-phenyl}-thiomorpholine] here?
Its Ki is 10.2 nM.

Which Ki does the source give for `Cc1onc(-c2ccccc2)c1-c1nnc(-c2ccc3[nH]cnc3c2)o1` [Example 27, 5-[5-(5-Methyl-3-phenyl-isoxazol-4-yl)-[1,3,4]oxadiazol-2-yl]-1H-benzoimidazole] here?
Its Ki is 22.1 nM.

For `COc1cc(N2CCS(=O)(=O)CC2)ccc1-c1nnc(-c2c(-c3ccccc3)noc2C)o1` [Example 28, 4-{3-Methoxy-4-[5-(5-methyl-3-phenyl-isoxazol-4-yl)-[1,3,4]oxadiazol-2-yl]-phenyl}-thiomorpholine 1,1-dioxide], which Ki is on record?
The Ki was 3.2 nM.

`COc1cc(N2CCC(O)CC2)ccc1-c1nnc(-c2c(-c3ccccc3)noc2C)o1` [Example 29, 1-{3-Methoxy-4-[5-(5-methyl-3-phenyl-isoxazol-4-yl)-[1,3,4]oxadiazol-2-yl]-phenyl}-piperidin-4-ol] was tested. Which Ki did it give?
The Ki was 6 nM.

Which Ki does the source give for `Cc1onc(-c2ccccc2)c1-c1nnc(-c2ccc(S(C)(=O)=O)cc2)o1` [Example 30, 2-(4-Methanesulfonyl-phenyl)-5-(5-methyl-3-phenyl-isoxazol-4-yl)-[1,3,4]oxadiazole] here?
The Ki was 226 nM.

Which Ki does the source give for `Cc1onc(-c2ccccc2)c1-c1nnc(-c2cccc(S(C)(=O)=O)c2)o1` [Example 31, 2-(3-Methanesulfonyl-phenyl)-5-(5-methyl-3-phenyl-isoxazol-4-yl)-[1,3,4]oxadiazole] here?
The Ki was 199 nM.

How did the Ki turn out when `Cc1onc(-c2ccccc2)c1-c1nnc(-c2ccc([N+](=O)[O-])cc2)o1` [Example 32, 5-(5-Methyl-3-phenyl-isoxazol-4-yl)-2-(4-nitro-phenyl)-[1,3,4]oxadiazole] was run?
The Ki was 240 nM.

How did the Ki turn out when `COc1cc(-n2ccnc2)ccc1-c1nnc(-c2c(-c3ccccc3)noc2C)o1` [Example 33, 2-(4-Imidazol-1-yl-2-methoxy-phenyl)-5-(5-methyl-3-phenyl-isoxazol-4-yl)-[1,3,4]oxadiazole] was run?
The Ki was 7.5 nM.

`Cc1onc(-c2ccccc2)c1-c1nnc(-c2ccc3[nH]c(=O)[nH]c3c2)o1` [Example 34, 5-[5-(5-Methyl-3-phenyl-isoxazol-4-yl)-[1,3,4]oxadiazol-2-yl]-1,3-dihydro-benzoimidazol-2-one] was tested. Which Ki did it give?
The Ki was 7.9 nM.

For `Cc1onc(-c2ccccc2)c1-c1nnc(-c2ccc(N)cc2)o1` [Example 35, 4-[5-(5-Methyl-3-phenyl-isoxazol-4-yl)-[1,3,4]oxadiazol-2-yl]-phenylamine], which Ki is on record?
Its Ki is 31.2 nM.

How did the Ki turn out when `Cc1onc(-c2ccccc2)c1-c1nnc(-c2ccc(F)cc2)o1` [Example 36, 2-(4-Fluoro-phenyl)-5-(5-methyl-3-phenyl-isoxazol-4-yl)-[1,3,4]oxadiazole] was run?
The Ki was 134 nM.
